{"source": "the supplement of paper PMC8671470", "data": [{"tested_on": "HEL", "settings": "72 h", "procedure,_shortened": "(§1)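 Fifteen myeloid leukaemia lines were incubated for 72 h at 37 °C with 5% CO2 across five tenfold doses from 1 to 10,000 nM, in duplicate. ATP luminescence was normalised to vehicle and to a positive control at 10 µM and fitted with a four-parameter log-logistic model. The IC50 came from these dose–response fits.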", "units": {"IC50 (cell viability)": "µM"}, "values": [{"smiles": "O=NN(CCCl)C(=O)NCCCl", "note": "[Carmustine]", "IC50 (cell viability)": "> 10"}, {"smiles": "O[C@H]1[C@H](O)[C@@H](O)CN2CC[C@H](O)[C@H]12", "note": "[Castanospermine]", "IC50 (cell viability)": "> 10"}, {"smiles": "O=C(/C=C/c1cccnc1)NCCCCC1CCN(C(=O)c2ccccc2)CC1", "note": "[Daporinad]", "IC50 (cell viability)": 0.00233}, {"smiles": "N=C(N)c1ccc(N=NNc2ccc(C(=N)N)cc2)cc1", "note": "[Diminazene]", "IC50 (cell viability)": "> 10"}, {"smiles": "OCCN(CCO)c1nc(N2CCCCC2)c2nc(N(CCO)CCO)nc(N3CCCCC3)c2n1", "note": "[Dipyridamole]", "IC50 (cell viability)": "> 10"}, {"smiles": "Cc1cc(O)c2c(c1)C(=O)c1cc(O)cc(O)c1C2=O", "note": "[Emodin]", "IC50 (cell viability)": "> 10"}, {"smiles": "N#Cc1ccc(C2CCCc3cncn32)cc1", "note": "(centres undefined) [Fadrozole]", "IC50 (cell viability)": "> 10"}, {"smiles": "Cc1nc(-c2ccc(OCC(C)C)c(C#N)c2)sc1C(=O)O", "note": "[Febuxostat]", "IC50 (cell viability)": "> 10"}]}, {"tested_on": "SHI-1", "settings": "72 h", "procedure,_shortened": "as §1", "units": {"IC50 (cell viability)": "µM"}, "values": [{"smiles": "CN(C)CCNC(=O)c1cccn2c(=O)c3cc4ccccc4cc3nc12", "note": "[Bmh-21]", "IC50 (cell viability)": "> 10"}, {"smiles": "C=C1C(=O)O[C@H](CCCCCCCC)[C@H]1C(=O)O", "note": "[C75]", "IC50 (cell viability)": "> 10"}, {"smiles": "O=C(Cc1cccc(OC(F)(F)F)c1)Nc1ccc(CCCCc2nnc(NC(=O)Cc3ccccn3)s2)nn1", "note": "[CB-839]", "IC50 (cell viability)": "> 10"}, {"smiles": "O=NN(CCCl)C(=O)NCCCl", "note": "[Carmustine]", "IC50 (cell viability)": "> 10"}, {"smiles": "O[C@H]1[C@H](O)[C@@H](O)CN2CC[C@H](O)[C@H]12", "note": "[Castanospermine]", "IC50 (cell viability)": "> 10"}, {"smiles": "O=C(/C=C/c1cccnc1)NCCCCC1CCN(C(=O)c2ccccc2)CC1", "note": "[Daporinad]", "IC50 (cell viability)": "> 10"}, {"smiles": "N=C(N)c1ccc(N=NNc2ccc(C(=N)N)cc2)cc1", "note": "[Diminazene]", "IC50 (cell viability)": "> 10"}, {"smiles": "OCCN(CCO)c1nc(N2CCCCC2)c2nc(N(CCO)CCO)nc(N3CCCCC3)c2n1", "note": "[Dipyridamole]", "IC50 (cell viability)": "> 10"}, {"smiles": "Cc1cc(O)c2c(c1)C(=O)c1cc(O)cc(O)c1C2=O", "note": "[Emodin]", "IC50 (cell viability)": "> 10"}, {"smiles": "N#Cc1ccc(C2CCCc3cncn32)cc1", "note": "(centres undefined) [Fadrozole]", "IC50 (cell viability)": "> 10"}, {"smiles": "Cc1nc(-c2ccc(OCC(C)C)c(C#N)c2)sc1C(=O)O", "note": "[Febuxostat]", "IC50 (cell viability)": "> 10"}]}, {"tested_on": "MOLM-13", "settings": "72 h", "procedure,_shortened": "as §1", "units": {"IC50 (cell viability)": "µM"}, "values": [{"smiles": "CN(C)CCNC(=O)c1cccn2c(=O)c3cc4ccccc4cc3nc12", "note": "[Bmh-21]", "IC50 (cell viability)": 2.38}, {"smiles": "C=C1C(=O)O[C@H](CCCCCCCC)[C@H]1C(=O)O", "note": "[C75]", "IC50 (cell viability)": "> 10"}, {"smiles": "O=C(Cc1cccc(OC(F)(F)F)c1)Nc1ccc(CCCCc2nnc(NC(=O)Cc3ccccn3)s2)nn1", "note": "[CB-839]", "IC50 (cell viability)": "> 10"}, {"smiles": "O=NN(CCCl)C(=O)NCCCl", "note": "[Carmustine]", "IC50 (cell viability)": "> 10"}, {"smiles": "O[C@H]1[C@H](O)[C@@H](O)CN2CC[C@H](O)[C@H]12", "note": "[Castanospermine]", "IC50 (cell viability)": "> 10"}, {"smiles": "O=C(/C=C/c1cccnc1)NCCCCC1CCN(C(=O)c2ccccc2)CC1", "note": "[Daporinad]", "IC50 (cell viability)": 0.00369}, {"smiles": "N=C(N)c1ccc(N=NNc2ccc(C(=N)N)cc2)cc1", "note": "[Diminazene]", "IC50 (cell viability)": "> 10"}, {"smiles": "OCCN(CCO)c1nc(N2CCCCC2)c2nc(N(CCO)CCO)nc(N3CCCCC3)c2n1", "note": "[Dipyridamole]", "IC50 (cell viability)": "> 10"}, {"smiles": "Cc1cc(O)c2c(c1)C(=O)c1cc(O)cc(O)c1C2=O", "note": "[Emodin]", "IC50 (cell viability)": "> 10"}, {"smiles": "N#Cc1ccc(C2CCCc3cncn32)cc1", "note": "(centres undefined) [Fadrozole]", "IC50 (cell viability)": "> 10"}, {"smiles": "Cc1nc(-c2ccc(OCC(C)C)c(C#N)c2)sc1C(=O)O", "note": "[Febuxostat]", "IC50 (cell viability)": "> 10"}]}, {"tested_on": "Mono-Mac-6", "settings": "72 h", "procedure,_shortened": "as §1", "units": {"IC50 (cell viability)": "µM"}, "values": [{"smiles": "CN(C)CCNC(=O)c1cccn2c(=O)c3cc4ccccc4cc3nc12", "note": "[Bmh-21]", "IC50 (cell viability)": 0.347}, {"smiles": "C=C1C(=O)O[C@H](CCCCCCCC)[C@H]1C(=O)O", "note": "[C75]", "IC50 (cell viability)": "> 10"}, {"smiles": "O=C(Cc1cccc(OC(F)(F)F)c1)Nc1ccc(CCCCc2nnc(NC(=O)Cc3ccccn3)s2)nn1", "note": "[CB-839]", "IC50 (cell viability)": "> 10"}, {"smiles": "O=NN(CCCl)C(=O)NCCCl", "note": "[Carmustine]", "IC50 (cell viability)": "> 10"}, {"smiles": "O[C@H]1[C@H](O)[C@@H](O)CN2CC[C@H](O)[C@H]12", "note": "[Castanospermine]", "IC50 (cell viability)": "> 10"}, {"smiles": "O=C(/C=C/c1cccnc1)NCCCCC1CCN(C(=O)c2ccccc2)CC1", "note": "[Daporinad]", "IC50 (cell viability)": 0.0206}, {"smiles": "N=C(N)c1ccc(N=NNc2ccc(C(=N)N)cc2)cc1", "note": "[Diminazene]", "IC50 (cell viability)": "> 10"}, {"smiles": "OCCN(CCO)c1nc(N2CCCCC2)c2nc(N(CCO)CCO)nc(N3CCCCC3)c2n1", "note": "[Dipyridamole]", "IC50 (cell viability)": "> 10"}, {"smiles": "Cc1cc(O)c2c(c1)C(=O)c1cc(O)cc(O)c1C2=O", "note": "[Emodin]", "IC50 (cell viability)": "> 10"}, {"smiles": "N#Cc1ccc(C2CCCc3cncn32)cc1", "note": "(centres undefined) [Fadrozole]", "IC50 (cell viability)": "> 10"}, {"smiles": "Cc1nc(-c2ccc(OCC(C)C)c(C#N)c2)sc1C(=O)O", "note": "[Febuxostat]", "IC50 (cell viability)": "> 10"}]}, {"tested_on": "LAMA-84", "settings": "72 h", "procedure,_shortened": "as §1", "units": {"IC50 (cell viability)": "µM"}, "values": [{"smiles": "CN(C)CCNC(=O)c1cccn2c(=O)c3cc4ccccc4cc3nc12", "note": "[Bmh-21]", "IC50 (cell viability)": 0.486}, {"smiles": "C=C1C(=O)O[C@H](CCCCCCCC)[C@H]1C(=O)O", "note": "[C75]", "IC50 (cell viability)": "> 10"}, {"smiles": "O=C(Cc1cccc(OC(F)(F)F)c1)Nc1ccc(CCCCc2nnc(NC(=O)Cc3ccccn3)s2)nn1", "note": "[CB-839]", "IC50 (cell viability)": 9.93}, {"smiles": "O=NN(CCCl)C(=O)NCCCl", "note": "[Carmustine]", "IC50 (cell viability)": "> 10"}, {"smiles": "O[C@H]1[C@H](O)[C@@H](O)CN2CC[C@H](O)[C@H]12", "note": "[Castanospermine]", "IC50 (cell viability)": "> 10"}, {"smiles": "O=C(/C=C/c1cccnc1)NCCCCC1CCN(C(=O)c2ccccc2)CC1", "note": "[Daporinad]", "IC50 (cell viability)": 0.00218}, {"smiles": "N=C(N)c1ccc(N=NNc2ccc(C(=N)N)cc2)cc1", "note": "[Diminazene]", "IC50 (cell viability)": "> 10"}, {"smiles": "OCCN(CCO)c1nc(N2CCCCC2)c2nc(N(CCO)CCO)nc(N3CCCCC3)c2n1", "note": "[Dipyridamole]", "IC50 (cell viability)": "> 10"}, {"smiles": "Cc1cc(O)c2c(c1)C(=O)c1cc(O)cc(O)c1C2=O", "note": "[Emodin]", "IC50 (cell viability)": "> 10"}, {"smiles": "N#Cc1ccc(C2CCCc3cncn32)cc1", "note": "(centres undefined) [Fadrozole]", "IC50 (cell viability)": "> 10"}, {"smiles": "Cc1nc(-c2ccc(OCC(C)C)c(C#N)c2)sc1C(=O)O", "note": "[Febuxostat]", "IC50 (cell viability)": "> 10"}]}, {"tested_on": "BV-173", "settings": "72 h", "procedure,_shortened": "as §1", "units": {"IC50 (cell viability)": "µM"}, "values": [{"smiles": "CN(C)CCNC(=O)c1cccn2c(=O)c3cc4ccccc4cc3nc12", "note": "[Bmh-21]", "IC50 (cell viability)": 0.293}, {"smiles": "C=C1C(=O)O[C@H](CCCCCCCC)[C@H]1C(=O)O", "note": "[C75]", "IC50 (cell viability)": "> 10"}, {"smiles": "O=C(Cc1cccc(OC(F)(F)F)c1)Nc1ccc(CCCCc2nnc(NC(=O)Cc3ccccn3)s2)nn1", "note": "[CB-839]", "IC50 (cell viability)": 0.118}, {"smiles": "O=NN(CCCl)C(=O)NCCCl", "note": "[Carmustine]", "IC50 (cell viability)": "> 10"}, {"smiles": "O[C@H]1[C@H](O)[C@@H](O)CN2CC[C@H](O)[C@H]12", "note": "[Castanospermine]", "IC50 (cell viability)": "> 10"}, {"smiles": "O=C(/C=C/c1cccnc1)NCCCCC1CCN(C(=O)c2ccccc2)CC1", "note": "[Daporinad]", "IC50 (cell viability)": "< 0.001"}, {"smiles": "N=C(N)c1ccc(N=NNc2ccc(C(=N)N)cc2)cc1", "note": "[Diminazene]", "IC50 (cell viability)": "> 10"}, {"smiles": "OCCN(CCO)c1nc(N2CCCCC2)c2nc(N(CCO)CCO)nc(N3CCCCC3)c2n1", "note": "[Dipyridamole]", "IC50 (cell viability)": 3.55}, {"smiles": "Cc1cc(O)c2c(c1)C(=O)c1cc(O)cc(O)c1C2=O", "note": "[Emodin]", "IC50 (cell viability)": "> 10"}, {"smiles": "N#Cc1ccc(C2CCCc3cncn32)cc1", "note": "(centres undefined) [Fadrozole]", "IC50 (cell viability)": "> 10"}, {"smiles": "Cc1nc(-c2ccc(OCC(C)C)c(C#N)c2)sc1C(=O)O", "note": "[Febuxostat]", "IC50 (cell viability)": "> 10"}]}, {"tested_on": "KCL-22", "settings": "72 h", "procedure,_shortened": "as §1", "units": {"IC50 (cell viability)": "µM"}, "values": [{"smiles": "CN(C)CCNC(=O)c1cccn2c(=O)c3cc4ccccc4cc3nc12", "note": "[Bmh-21]", "IC50 (cell viability)": 0.312}]}]}
